These results are taken from patent US20230097753A1, “ALPHA-HYDROXYLATED FATTY-ACID METABOLITES, MEDICAL USES AND USE AS BIOMARKERS” (UNIVERSITAT DE LES ILLES BALEARS, priority 2020, published 2023).

For orientation: IC50 means the concentration needed to halve the response being measured.

Several values for one entry are separate records, joined by “and”; a condition that tells them apart may be missing. Equal values may be shown once. Where only a bound is given, the exact number is not on record here.

In series [1] the test system is SF-295 glioma cells. As to the kind of experiment: Cell viability by violet crystal staining, 72 hours. Type of series: cell-based, human. The conditions noted are these: for IC50: SF-295, 72 hours. The protocol: FIG. 14. Effect of 2OHOA sodium salt, OA and C17:1n-9 sodium salt on cell viability and proliferation of glioma cells. […] Viability was determined by violet crystal staining.
(§1) In order to evaluate the antiproliferative effect of C17:1n-9, its IC50, which corresponds to the amount of a compound needed to reduce cell viability in vitro by 50%, as well as its effect on the regulation of proteins involved in the mechanism of action of 2OHOA, were determined. […] Upon completion of treatment, IC50 was determined by violet crystal staining technique. […] The IC50 of 2OHOA was 1000 μM for non-tumor cells, MRC-5 and astrocytes.

Series [2] deals with MRC-5 (human fibroblasts). The series is described as above. Type of series: cell-based. As to the method:
(§2) FIG. 15. Effect of 2OHOA sodium salt, C17:1n-9 sodium salt, and OA on cell viability and proliferation of non-tumor cells. Non-tumor cell viability curves (A1-A3) MRC-5 (human fibroblasts); and (B1-B3) mouse astrocytes treated with increasing doses of 2OHOA sodium salt (0-1000 μM) (A1 and B1); OA (0-300 μM) (A2 and B2); and C17:1n-9 sodium salt (0-300 μM) (A3 and B3) for 72 hours. Viability was determined by violet crystal staining.
as §1

Series [3] relates to mouse astrocytes. Described as above. The conditions noted are these: Astrocyte, Astrocytes non-tumor cells. It is filed as cell-based. The protocol: as §2, §1
The next series concerns SF-295. Nature of the series: Cell survival by trypan blue vital exclusion staining, 2OHOA and oxythiamine. It is filed as cell-based, human. The protocol: FIG. 18. Effect of metabolite C17:1n-9 on the action of 2OHOA. […] Cell viability was determined by vital exclusion staining with trypan blue.
(§3) To study whether the metabolite C17:1n-9 can participate in the action of 2OHOA, the effect of pre-incubation with oxythiamine on cell survival and 2OHOA-regulated proteins was studied. To do this, the cell survival of different glioma and non-tumor cell lines treated with 2OHOA (400 μM, 72 hours) and pre-incubated or not with 2 mM […] (90 minutes) was analyzed by counting the cells with the vital exclusion stain with trypan blue. In addition, Western-blot 2OHOA-modulated proteins were studied. In glioma cells, a significant decrease in cell survival was observed after incubation with 2 mM oxythiamine for 72 hours.

For series [4], the system named is BIP, CHOP, cJun phosphorylation, phosphorylation of Akt, cyclin D3. As to the kind of experiment: Western Blot of proliferation and death markers in glioma and non-tumor cell lines. The conditions noted are these: 200 μM C17:1n-9, 200 μM OA or 400 μM 2OHOA, 72 hours. It is filed as cell-based. The protocol:
FIG. 16. Analysis of the effect of different fatty acids on markers of proliferation and death in different cell lines.
as §3
(In general: A western blot detects proteins with antibodies after separation by electrophoresis.)

The nature of series [5]: Fatty acids in rat plasma after oral 2OHOA sodium salt (gas chromatography). It is filed as in vivo. The conditions noted are these: for Maximum plasma concentration: 2 hours after oral 2OHOA sodium salt 2 g/Kg; for Maximum plasma concentration / Time of maximum plasma concentration: acute treatment. As to the method: FIG. 20. […] Statistical significance is determined with a Wilcoxon test (*p<0.05 and **p<0.01 with respect to baseline levels at 0 hours; $p<0.05 and $$p<0.01 with respect to 2OHOA fatty acid levels).
FIG. 21. […] Statistical significance is determined by a Wilcoxon test (*p<0.05 and **p<0.01 with respect to baseline levels at 0 hours; $p<0.05 and $$p<0.01 with respect to 2OHOA fatty acid levels).
For the present study, 2 g of 2OHOA/Kg sodium salt was administered to rats 12-14 weeks of age orally for 15 days. Subsequently, plasma samples were extracted at different times (0, 1, 2, 3, 4, 6, 8 and 24 h) from day 1 (acute treatment) and 15 (chronic treatment). Finally, the fatty acid profile in plasma samples was analyzed by gas chromatography.

Series [6] is described as follows: Fatty acids in plasma of patients with advanced glioma treated with 2OHOA sodium salt. Type of series: in vivo, human. The conditions noted are these: for Time of peak plasma levels: first day. As to the method:
FIG. 24. Analysis of composition in fatty acids in human patients with advanced glioma. (A) Representative chromatogram of the fatty acid composition of a patient with glioma responsive to treatment with 2OHOA sodium salt (12 g/day, 21 days) and determined in plasma samples obtained at different treatment times (0, 4 and 360 hours, 15 days) by gas chromatography. […] The C17:0 margaric acid in the chromatograms was quantified as internal control.
Plasma samples were obtained at different times (0, 2, 4, 6, 8 hours and after 8, 15, 21 and 28 days after treatment with 2OHOA) and were subsequently given for fatty acid analysis using the gas chromatography technique.

The subject of series [7] is SF-295 glioma cells. The conditions noted are these: human, 24 h, 400 μM.
From the text: (§4) Analysis of the composition of fatty acids in different glioma and non-tumor cell lines after treatment with 2OHOA sodium salt. […] The black bar corresponds to the concentration of each fatty acid in the control, and the white bar corresponds to the concentration of the fatty acid after treatment with 2OHOA sodium salt. C17:0 margaric acid is included as an internal control. The columns show the mean±SEM of three independent experiments expressed in nmoles and normalized per mg of protein. Statistical significance is determined with a Student's t-test (**p<0.01, ***p<0.001 with respect to the control).
Series [8] relates to MRC-5 (human fibroblasts). The conditions noted are these: 24 h, 400 μM.
From the text: as §4
The subject of series [9] is mouse astrocytes. The conditions noted are these: 24 h, 400 μM.
From the text: as §4
For series [10] the following is noted: defined in preclinical studies; cited from earlier work.
For series [11], the system named is MRC-5 (human fibroblasts). Nature of the series: Fatty acid composition by gas chromatography after treatment with 2OHOA. The conditions noted are these: MRC-5, 2OHOA 400 μM for 24 hours.
From the text: as §4
For series [12], the system named is mouse astrocytes. The series is described as above. The conditions noted are these: 2OHOA 400 μM for 24 hours.
From the text: as §4
[13] abbreviates: patients, 12 g/day 2OHOA sodium salt.

Consider `CCCCCCCC/C=C\CCCCCCC(O)C(=O)O` (stereo not shown) [2OHOA, 2-hydroxyoleic acid], for which the IC50 with SF-295 glioma cells [1] (Homo sapiens) was 399 ± 11.5 µM; in series [2] (Homo sapiens, MRC5, MRC-5 non-tumor cells) it was greater than 1000 µM; with mouse astrocytes [3] it was greater than 1000 µM. For the same compound, the “IC50 of 2OHOA relative to that of metabolite C17:1n-9” value in the series with SF-295 glioma cells [1] (SF-295) amounted to 1.60 times. For the same compound, the “IC50 of 2OHOA relative to that of non-hydroxy analogue OA” value in the series on SF-295 glioma cells [1] (SF-295) stood at 1.56 times. In addition, the Cell death with SF-295 (SF-295, 2OHOA 400 μM, 72 hours) turned out to be 23.97±1.25%; with SF-295 (SF-295, 2OHOA combined with 2 mM oxythiamine), 10.85±0.58%. For the same compound, the “Recovery in cell viability” value in the series on SF-295 (SF-295, 2OHOA combined with 2 mM oxythiamine vs 2OHOA alone) worked out at 17.25%. In addition, in series [4], the “Effect on signaling proteins (Western Blot)” value is “increased levels of BIP, CHOP and cJun phosphorylation and decreased phosphorylation of Akt and cyclin D3 levels”. For the same compound, the Maximum plasma concentration in [5] is on record as 26.23±5.79 nmol/ml plasma. In series [5] (oral 2OHOA sodium salt 2 g/Kg), the “Time of maximum plasma concentration” value stood at 2 h. Further, the concentration at 8 h amounted to 7.12 ± 1.56 µM in series [5] (plasma, oral 2OHOA sodium salt 2 g/Kg, read-out: Plasma level after 8 hours) and 25.4 ± 3.99 µM in series [6] (human, plasma, oral, patients, 12 g/day 2OHOA sodium salt, read-out: Plasma level 8 hours after treatment). Moreover, in series [5] (plasma, oral 2OHOA sodium salt 2 g/Kg, read-out: Plasma level at 0 hours (initial levels, prior to administration)), the concentration at 0 h is 1.22 ± 0.33 µM. Further, the concentration at 24 h in series [5] (plasma, oral 2OHOA sodium salt 2 g/Kg, read-out: Plasma level at 24 hours (trough values)) amounted to 2.8 ± 0.69 µM. Moreover, the concentration at 4 h in [6] (human, plasma, oral, patients (responders and non-responders), 12 g/day 2OHOA sodium salt, read-out: Plasma level 4 hours after the first intake) stood at 53.1 ± 6.52 µM. Moreover, the concentration at 360 h in [6] (human, plasma, oral, patients, 12 g/day 2OHOA sodium salt, read-out: Plasma level after 15 days (360 hours) of treatment) was 185 ± 25.6 µM. For the same compound, the concentration at 192 h in series [6] (human, plasma, oral, patients, 12 g/day 2OHOA sodium salt, read-out: Plasma level at 8 days of treatment (192 hours)) was found to be 25.4 ± 3.99 µM. Also, the “Plasma level after 15 days (360 hours) of treatment” value in series [6] (setting [13]) is 141.10±16.35 nmol/ml plasma. Also, the “Plasma level at 8 days of treatment (192 hours)” value in series [6] (setting [13]) is given as 25.39±3.99 nmol/ml plasma. Further, the “Plasma level at 21 days of treatment” value in series [6] (setting [13]) was 184.70±25.60 nmol/ml plasma. The “Time of peak plasma levels” value in [6] (setting [13]) is 4 h. Moreover, the “Level of the fatty acid in cells after treatment with 2OHOA” value (from here on “Level of the fatty acid in cells”) in the series with SF-295 glioma cells [7] stood at 9.21 nmol/mg. For the same compound, the “2OHOA accumulated more than its metabolite C17:1n-9” value in series [8] is given as 46%; in the series on mouse astrocytes [9], 38.27%. Further, the Maximum tolerated dose in series [10] was 2000 mg/kg.
Regarding `CCCCCCCC/C=C\CCCCCCC(=O)O` [C17:1n-9, 8Z-heptadecenoic acid], the IC50 in the series with SF-295 glioma cells [1] was 249 ± 6.02 µM. For the same compound, the IC50 in [2] (MRC-5 non-tumor cells) is 248 ± 7.28 µM. In addition, in series [4], the “Effect on signaling proteins (Western Blot)” value is “did not produce changes in any of these proteins”. The Maximum plasma concentration in series [5] stood at 60.47±6.53 nmol/ml plasma. In series [5] (oral 2OHOA sodium salt 2 g/Kg), the “Plasma level after 8 hours” value is 23.31±5.18 nmol/mL plasma; the “Plasma level at 0 hours (initial levels, prior to administration)” value is 8.45±2.52 nmol/ml plasma; the “Plasma level at 24 hours (trough values)” value is 14.03±2.20 nmol/ml plasma and 14.03±2.21 nmol/ml plasma; the “Time of maximum plasma concentration” value is 2 h. Also, the “Plasma level 4 hours after the first intake” value in series [6] (patients (responders and non-responders), 12 g/day 2OHOA sodium salt) is reported as 122.80±10.61 nmol/ml of plasma. In addition, the “C17:1n-9 plasma levels relative to 2OHOA” value in series [6] (patients at 21 days of treatment) was 1.90 times. In addition, in series [6] (patients treated for 8 days), the “C17:1n-9 plasma levels relative to 2OHOA” value came out at 3.66 times. Besides, the “C17:1n-9 plasma levels relative to 2OHOA” value in series [6] (patients treated for 15 days) came to 2.20 times. In [6] (setting [13]), the “Plasma level 8 hours after treatment” value is on record as 92.89±9.39 nmol/ml of plasma, the “Plasma level at 21 days of treatment” value came to 366.9±72.47 nmol/ml plasma and the “Time of peak plasma levels” value amounted to 4 h. The “Level of the fatty acid in cells” value in [11] is recorded as 14.00 nmol/mg. Besides, the “Level of the fatty acid in cells” value in the series with mouse astrocytes [12] was 7.58 ± 0.70 nmol/mg and 7.58 nmol/mg.
